Earlier results on 1 compound are cited in patent publication EP4781989A1, “POSACONAZOLE SOLID DISPERSION AND PREPARATION METHOD THEREFOR” (BEIJING DELIVERY PHARMACEUTICAL TECHNOLOGY CO., LTD, priority 2023, dated 2024).

Where two headings read alike, the source gives them in different places.

Take `CC[C@@H]([C@H](C)O)n1ncn(-c2ccc(N3CCN(c4ccc(OC[C@@H]5CO[C@@](Cn6cncn6)(c6ccc(F)cc6F)C5)cc4)CC3)cc2)c1=O` [Posaconazole]: the solubility result is, setting by setting: (at about pH 6.4 or higher) “less than 1 µg/mL”; (gastric environment with about pH 1) “about 0.8 mg/mL”.
